The record followed here is EP4635966A1, “SYNTHETIC VARIANTS OF THE GANGLIOSIDE NGCGM3 AND USE THEREOF IN CANCER TREATMENT” (Centro de Inmunologia Molecular, priority 2022, dated 2024).

For one assay, the system named is iNKT cells. Kind of assay: In vivo iNKT cell activation: serum IFNγ by ELISA after i.p. injection. On the set-up: species or system C57BL/6 mice. As to conditions: 200 µg i.p.; blood 16 hours after administration; Figure 7. On the procedure: C57BL/6 mice were injected intraperitoneally with 200 µg of natural NGcGM3 ganglioside, NGcGM3 d18:1-C24:1, NGcGM3 d18:1-C 18:0 and 2 µg of αGalCer or vehicle (5.6 % sucrose, 0.75 % L-histidine and 0.5 % Tween-20) and blood was drawn 16 hours after the administration. Serum IFNγ levels were assessed by ELISA as an indirect measure of iNKT cell activation (Mouse IFNy ELISA Ready-SET-Go!, eBioscience).
A general note: In an ELISA, binding on a coated surface is turned into a signal by an enzyme label.

Another assay has as its system P3X63 myeloma cells. Kind of assay: Subcutaneous P3X63 myeloma tumor growth (tumor volume). Format: in vivo, BALB/c mice. Particulars: day 5. On the procedure: 1x10^6 P3X63 cells were implanted subcutaneously into syngeneic BALB/c mice. Animals were randomized, divided into groups of 6-8 and received intraperitoneal treatments with 200 µg NGcGM3 d18:1-C24:1 ganglioside, αGalCer or vehicle (5.6% sucrose solution, 0.75% L-histidine and 0.5% Tween20 0.5%) on days 1, 5 and 9. Tumor diameters were measured with a caliper and tumor volume (TV) was calculated according to the formula: TV (mm^3) = π/6 × major diameter × (minor diameter)^2. […] The individual tumor volume values of the animals in each group and the mean and standard deviation of the mean in each case on day 5 of the experiment are shown. […] Table 1. Percentage distribution of tumor volume of the animals in each group.
1x10^6 P3X63 myeloma cells were implanted subcutaneously into syngeneic BALB/c mice. Animals were randomized, divided into groups of 6-8 and received treatments with vehicle solution (5.6% sucrose, 0.75% L-histidine and 0.5% Tween-20), αGalCer, NGcGM3 d18:1-C24:1 or nanoparticles of OMPC and NGcGM3 d18:1-C24:1 (GlycoVax 24:1) on days 1, 5 and 9.
Subcutaneous tumor diameters were measured every 2-3 days with a caliper and TV was calculated according to the formula: TV (mm^3) = π/6 × major diameter × (minor diameter)^2. […]

The mark [1] stands for this setting: Example 5, Table 1, 1x10^6 P3X63 s.c., i.p. on days 1, 5 and 9 (200 µg NGcGM3 d18:1-C24:1).
Where [2] appears, read: Example 10, Table 2, 1x10^6 P3X63 s.c., treatment on days 1, 5 and 9.

Turning to `CCCCCCCCCCCCCC=CC(O)C(COC1OC(CO)C(OC2OC(CO)C(O)C(OC3(C(=O)O)CC(O)C(NC(=O)CO)C(C(O)C(O)CO)O3)C2O)C(O)C1O)NC(=O)CCCCCCCCCCCCCCCCC` (stereo not shown) [NGcGM3 d18:1-C18:0, reference compound], the “serum IFNγ levels (in vivo activation of iNKT cells)” value with iNKT cells is “inactive”.
In the case of `CCCCCCCCCCCCCCCCCCCCCCCCCC(=O)N[C@@H](CO[C@H]1O[C@H](CO)[C@H](O)[C@H](O)[C@H]1O)[C@H](O)[C@H](O)CCCCCCCCCCCCCC` [αGalCer, α-galactosylceramide, reference compound], in the assay with P3X63 myeloma cells (setting [1]), the “TV < 36 mm^3 (percentage distribution of tumor volume of the animals)” value was 25% and the “TV > 36 mm^3 (percentage distribution of tumor volume of the animals)” value was 75%. Besides, the “growth of subcutaneous tumors” value in the assay with P3X63 myeloma cells (Example 5, p<0.001 for NGcGM3 d18:1-C24:1, p<0.05 for αGalCer vs placebo) is on record as “significantly inhibited the growth of subcutaneous tumors”. Besides, in the assay with P3X63 myeloma cells (setting [2]), the “TV < 36 mm^3 (percentage distribution of tumor volume of animals)” value was found to be 25% and the “TV > 36 mm^3 (percentage distribution of tumor volume of animals)” value turned out to be 75%. The “antitumor effect (inhibition of tumor growth vs control group)” value in the assay with P3X63 myeloma cells (Example 10, p=0.0031 NGcGM3 d18:1-C24:1, p=0.0004 GlycoVax 24:1) is “did not show a statistically significant antitumor effect”.
